Measurements from patent publication US6262064A, “Octahydrobenzo[f]quinoline-based receptor agonists and antagonists” (priority 1999, dated 2001).
Where two headings read alike, the source gives them in different places.

Key:
D4 (rat) receptor = biological target: T1, D4 (rat) receptor (Rattus norvegicus, UniProt P30729); test: D2:D3:D4 competition binding assay, D4 ([3H]-spiperone); conditions: in words, Example 26
T1 construct: expressed in transfected cells
T1 sequence (P30729 1-387): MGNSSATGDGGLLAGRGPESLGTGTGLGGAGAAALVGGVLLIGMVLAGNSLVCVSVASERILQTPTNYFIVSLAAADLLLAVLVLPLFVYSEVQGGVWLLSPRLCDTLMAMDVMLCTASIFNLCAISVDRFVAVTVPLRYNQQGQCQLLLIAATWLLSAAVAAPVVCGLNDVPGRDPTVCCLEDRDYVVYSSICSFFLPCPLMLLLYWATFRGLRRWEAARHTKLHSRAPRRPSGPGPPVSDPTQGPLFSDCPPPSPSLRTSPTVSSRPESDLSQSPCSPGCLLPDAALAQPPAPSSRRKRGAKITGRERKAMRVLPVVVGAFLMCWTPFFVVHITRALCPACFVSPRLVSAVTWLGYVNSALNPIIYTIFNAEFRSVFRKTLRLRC
Procedure: (§1) To determine the D2, D3 or D4 receptor selectivity, competition binding assays were performed using membranes from fibroblast cell lines transfected with D2444 (rat), D3 (human) or D4 (rat) receptors. All cell lines were maintained in Dulbecco's modified Eagle's media (DMEM) supplemented with 10 % fetal bovine serum at 37° C. with 5% CO2. Transfected cells were maintained in DMEM containing 300 μg/mL of the antibiotic G418 (Gibco).
Nuclei were removed by centrifugation for five minutes at 600 g at 4° C., membranes were pelleted for 25 minutes at 50,000 g. Membrane protein was resuspended in homogenization buffer (0.32M sucrose, 0.0025M Tris, pH 6.9 at 20° C.) and incubated at 37° C. for 15 minutes. Membrane protein was pelleted, resuspended in water and stored at -70° C.
The compositions were tested in varying concentrations between 1 nM and 100 μM. Non-specific binding was determined using 1 μM eticlopride.
After addition of all components, the samples were incubated for 15 minutes at 37° C., terminated with 50 mM Tris-HCl (pH 7.4 at 4° C.) and collected on glass-fiber filters on a Brandel cell harvester. […] Each composition was evaluated in duplicate experiments.

[1] = system: non-habituated male Swiss-Webster mice; test: Locomotor dose-effect test; assay type: in vivo
Procedure: Compounds of this invention were tested to evaluate any depressant effect upon locomotor activity on non-habituated and cocaine-influenced mice. Locomotor activity was measured in photocell cages. A panel of infrared beams was located in the horizontal direction along all 4 sides of each activity cage. Horizontal photocell beam interruptions were recorded by a computer in 10 minute intervals.
Non-habituated male Swiss-Webster served as subjects in this experiment. The mice were injected via the intraperitoneal (IP) route with a methycellulose vehicle or a test compound, comprising trans-9 or cis-9, and placed singly in cages for 20 minutes. After this 20 minute period, mice were injected with saline IP, placed in individual photocell cages and testing for effects upon locomotor activity was begun. Eight mice were tested at each dose level. Experimental sessions were 60 minutes in duration with horizontal locomotor activity recorded in 10 minute intervals. Within each 10 minute interval, the data from all subjects are averaged.
The results of these tests were provided in FIGS. 1a, 1b, 2a and 2b, as well as in Table XI. […] Data were analyzed by a one-way ANOVA computed across doses using a long10 transformation of the horizontal activity counts. Comparisons between vehicle and each dose of the compounds tested were made by a priori contrasts. Doses of the compounds tested, which produced a statistically significant (p<0.05) decrease in locomotor activity relative to vehicle control, are denoted with an asterisk. […] The horizontal activity counts were regressed against the log10 dose of the test compound.

[2] = system: male Sprague-Dawley albino rats; test: Stereotypy evaluation for dopaminergic activity; assay type: in vivo; conditions: IP
Procedure: Young, adult, male Sprague-Dawley (Charles River) albino rats (200-250 g) served as subjects in this experiment. The rats were injected IP with each dose of (±)-trans-9 or (±)-cis-9. Six rats were tested at each dose. Experimental sessions were 60 minutes in duration. The tests were performed and rated in accordance with the method described in Campbell et al., Psychopharmacology, 88:158 (1986). Each rat was rated with a score of 0 to 3, where 0 represents no sterotypy.

D4 receptor = biological target: T2, D4 receptor (Homo sapiens, UniProt P21917, DEL265-296); test: D2:D4 comparative binding assay, D4 (COS-7 cells)
T2 construct: expressed in transfected cells; host or cells: COS-7 cells
Procedure: (§2) To evaluate D2 versus D4 receptor selectivity, comparative binding assays were performed to compare the binding affinities of compositions of this invention for cloned D2 and D4 receptors.
(§3) The D2 assay was prepared from pig anterior pituitary tissue as described in Seeman et al., Molecular Pharmacology, 28:391 (1985). The D4 assay contained membranes prepared from COS-7 cells transfected with a 3.9 kb cDNA-gene fusion construct as described in H. H. M. Vantol, Nature, 350:610 (1991).
(§4) Binding assays were done using the methods described in by Seeman and Vantol. [^3 H]-spiperone (New England Nuclear, Boston, Mass.). The compositions were tested varying concentrations.
(§5) After addition of all components, the samples were incubated for 15 minutes at 37° C., terminated with 50 mM Tris-HCl (pH 7.4 at 20° C.) and collected on glass-fiber filters on a Brandel cell harvester. Radioactivity retained on the filters was counted on a Beckman LS 1701 scintillation counter and data were analyzed by non-linear least squares regression methods.

[3] = biological target: alpha2-adrenergic receptor; test: Alpha2-adrenergic (non-selective) binding assay ([3H]RX 781094); parameters: species or system rat; conditions: for Ki: Table III, rat cortical membranes, read-out: α2 receptor binding affinity Ki; for α2 receptor binding affinity: in words
D2 dopamine receptor = biological target: T3, D2 dopamine receptor (Rattus norvegicus, UniProt P61169); test: Dopamine D2 binding assay ([3H]Sulpiride); conditions: for dopamine receptor binding affinity / selectivity for the D2 over the D1 dopamine receptor: in words
T3 construct: rat striatal membranes; from tissue; host or cells: rat striatum membranes
Procedure: The final ligand concentration was 0.5 nM.

D2 receptor [4] = biological target: T4, D2 receptor (Rattus norvegicus, UniProt P61169); test: D2 receptor agonist evaluation (membrane binding with and without Gpp(NH)p)
T4 construct: expressed in transfected cells
Procedure: as §1
To determine whether or not compounds of this invention were D2 receptor agonists, a membrane binding assay, utilizing the D2 cell line described in Example 26, was performed in the presence and absence of the non-hydrolyzable guanine nucleotide (GTP analogue) Gpp(NH)p.

D2 receptor [5] = biological target: T5, D2 receptor (Sus scrofa, UniProt F1SM69); test: D2:D4 comparative binding assay, D2 (pig anterior pituitary)
T5 construct: pig anterior pituitary tissue; from tissue; host or cells: pig anterior pituitary
Procedure: as §2, §3, §4, §5

[6] = biological target: alpha1-adrenergic receptor; conditions: for Ki: read-out: α1 receptor binding affinity Ki, Table III, rat forebrain membranes
Procedure: In these assays, the binding reaction was initiated by the addition of varying concentrations of the potential binding composition and a radioligand to an appropriate tissue. The assay was then incubated to allow binding. Binding was then terminated by dilution of the assay with a cold buffer, followed by rapid vacuum filtration onto Whatman GI/C filters that were presoaked in 0.1% polyethylene imine for at least 3 hours. Radioactivity trapped onto the filters was determined and compared to control values in order to ascertain any interactions of test compounds with the binding sites. Binding affinity analyses were performed by Novascreen, Division of the Adheron Corporation, Hanover, Md.
Incubation was conducted in 50 mM TRIS-HCl (pH 7.7) at 25° C. for 60 minutes. […] The final ligand concentration was 0.5 nm.

5HT1 serotonin receptor = test: Serotonin (5HT1) binding assay
Procedure: In these assays, the binding reaction was initiated by the addition of varying concentrations of the potential binding composition and a radioligand to an appropriate tissue. The assay was then incubated to allow binding. Binding was then terminated by dilution of the assay with a cold buffer, followed by rapid vacuum filtration onto Whatman GI/C filters that were presoaked in 0.1% polyethylene imine for at least 3 hours. Radioactivity trapped onto the filters was determined and compared to control values in order to ascertain any interactions of test compounds with the binding sites.
Incubation was conducted in 50 mM TRIS-HCl (pH 7.4) at 45 minutes for 37° C. The radioligand used was [^3 H]Hydroxytryptamine binoxalate (15-30 Ci/mmol). The final ligand concentration was 3.0 nM.

5HT1A serotonin receptor = biological target: T6, 5HT1A serotonin receptor (Bos taurus, UniProt F6Q2H9); test: Serotonin (5HT1A) binding assay ([3H]-8-OH-DPAT); parameters: species or system bovine
T6 construct: bovine hippocampus; from tissue; host or cells: bovine hippocampus
T6 sequence (F6Q2H9 1-422): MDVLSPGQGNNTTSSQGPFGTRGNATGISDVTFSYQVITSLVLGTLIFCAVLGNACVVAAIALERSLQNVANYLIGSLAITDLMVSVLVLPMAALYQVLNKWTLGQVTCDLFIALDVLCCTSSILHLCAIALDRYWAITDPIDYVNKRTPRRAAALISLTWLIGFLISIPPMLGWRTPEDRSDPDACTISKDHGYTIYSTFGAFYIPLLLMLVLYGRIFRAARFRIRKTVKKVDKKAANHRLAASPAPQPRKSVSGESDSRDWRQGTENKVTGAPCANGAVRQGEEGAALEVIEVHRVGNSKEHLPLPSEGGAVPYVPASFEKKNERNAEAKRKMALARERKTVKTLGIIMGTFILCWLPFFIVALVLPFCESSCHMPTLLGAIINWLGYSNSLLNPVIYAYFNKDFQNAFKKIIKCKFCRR

D1 dopamine receptor = biological target: T7, D1 dopamine receptor (Rattus norvegicus, UniProt P18901); test: Dopamine D1 binding assay ([3H]SCH 23390); conditions: Table III; rat striatal membranes; read-out: D1 receptor binding affinity Ki
T7 construct: rat striatal membranes; from tissue; host or cells: rat striatum membranes
Procedure: The final radioligand concentration was 0.5 nM.

5HT2 serotonin receptor = biological target: T8, 5HT2 serotonin receptor (Rattus norvegicus, UniProt P14842); test: Serotonin (5HT2) binding assay ([3H]Ketanserin); conditions: 5-HT2 receptor binding affinity Ki
T8 construct: rat cortical membranes; from tissue; host or cells: rat cortex membranes
Procedure: The final ligand concentration was 1.0 nM.

T3 sequence (P61169 whole entry): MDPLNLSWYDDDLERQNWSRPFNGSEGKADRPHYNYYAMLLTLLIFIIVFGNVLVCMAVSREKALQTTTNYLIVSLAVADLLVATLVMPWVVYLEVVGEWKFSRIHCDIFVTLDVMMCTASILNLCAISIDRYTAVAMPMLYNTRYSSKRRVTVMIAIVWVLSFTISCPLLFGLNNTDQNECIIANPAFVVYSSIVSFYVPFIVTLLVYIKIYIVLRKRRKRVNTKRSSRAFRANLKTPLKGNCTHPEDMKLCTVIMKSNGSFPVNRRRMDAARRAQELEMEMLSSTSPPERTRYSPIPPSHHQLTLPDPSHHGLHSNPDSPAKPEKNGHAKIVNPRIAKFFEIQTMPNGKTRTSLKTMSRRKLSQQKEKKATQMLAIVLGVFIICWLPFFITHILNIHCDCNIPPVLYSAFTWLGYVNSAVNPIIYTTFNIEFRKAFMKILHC
T4 sequence (P61169 whole entry): as above
T2 sequence (P21917 other isoform, or with tags, fused parts or gaps DEL265-296): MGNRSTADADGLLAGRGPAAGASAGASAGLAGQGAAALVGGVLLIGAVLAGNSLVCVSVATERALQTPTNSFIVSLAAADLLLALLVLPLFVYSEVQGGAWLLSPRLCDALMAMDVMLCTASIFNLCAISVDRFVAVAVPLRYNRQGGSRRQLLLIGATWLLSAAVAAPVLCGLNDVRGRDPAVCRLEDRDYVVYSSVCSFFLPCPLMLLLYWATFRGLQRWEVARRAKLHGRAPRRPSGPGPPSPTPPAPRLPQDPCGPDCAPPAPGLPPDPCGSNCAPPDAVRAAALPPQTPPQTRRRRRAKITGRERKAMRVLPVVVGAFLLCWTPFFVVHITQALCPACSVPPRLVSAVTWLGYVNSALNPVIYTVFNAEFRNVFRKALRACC
T7 sequence (P18901 whole entry): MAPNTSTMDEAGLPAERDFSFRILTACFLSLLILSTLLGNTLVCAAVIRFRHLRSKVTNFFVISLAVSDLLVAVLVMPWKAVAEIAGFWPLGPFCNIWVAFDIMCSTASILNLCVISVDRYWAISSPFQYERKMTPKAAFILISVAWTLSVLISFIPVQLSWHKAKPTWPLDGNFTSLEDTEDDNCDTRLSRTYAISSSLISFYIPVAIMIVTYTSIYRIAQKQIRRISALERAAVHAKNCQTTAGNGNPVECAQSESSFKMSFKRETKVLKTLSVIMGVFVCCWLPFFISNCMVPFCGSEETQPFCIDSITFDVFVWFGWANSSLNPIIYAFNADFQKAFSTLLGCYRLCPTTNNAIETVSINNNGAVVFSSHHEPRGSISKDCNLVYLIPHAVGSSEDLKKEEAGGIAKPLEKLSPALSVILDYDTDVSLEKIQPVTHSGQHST
T5 sequence (F1SM69 1-443): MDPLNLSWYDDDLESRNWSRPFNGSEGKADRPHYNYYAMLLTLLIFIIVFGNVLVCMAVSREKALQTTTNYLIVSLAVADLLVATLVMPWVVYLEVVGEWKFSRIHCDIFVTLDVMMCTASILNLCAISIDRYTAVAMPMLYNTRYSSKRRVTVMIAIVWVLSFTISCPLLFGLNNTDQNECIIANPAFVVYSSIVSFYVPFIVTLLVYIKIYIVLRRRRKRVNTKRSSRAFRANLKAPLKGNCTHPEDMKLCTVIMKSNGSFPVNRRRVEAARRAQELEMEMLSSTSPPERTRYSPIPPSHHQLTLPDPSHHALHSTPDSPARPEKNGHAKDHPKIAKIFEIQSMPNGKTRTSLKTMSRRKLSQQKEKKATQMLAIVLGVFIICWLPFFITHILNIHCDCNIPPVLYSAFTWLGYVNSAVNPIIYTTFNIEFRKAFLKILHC
T8 sequence (P14842 whole entry): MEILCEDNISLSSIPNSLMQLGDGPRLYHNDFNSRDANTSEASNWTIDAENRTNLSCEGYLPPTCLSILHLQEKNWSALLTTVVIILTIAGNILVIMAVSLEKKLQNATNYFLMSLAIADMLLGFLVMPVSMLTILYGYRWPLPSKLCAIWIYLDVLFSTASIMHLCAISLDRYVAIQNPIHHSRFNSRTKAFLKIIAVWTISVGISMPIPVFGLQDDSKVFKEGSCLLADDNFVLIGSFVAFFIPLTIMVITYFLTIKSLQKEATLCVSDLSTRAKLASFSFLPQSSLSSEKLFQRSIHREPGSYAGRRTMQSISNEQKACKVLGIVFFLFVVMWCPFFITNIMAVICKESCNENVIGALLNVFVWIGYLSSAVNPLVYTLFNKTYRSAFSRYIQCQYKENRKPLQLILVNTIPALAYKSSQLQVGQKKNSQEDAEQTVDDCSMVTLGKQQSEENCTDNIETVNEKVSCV

Oc1ccc2c(c1O)CC[C@@H]1[C@H]2CCCN1CCc1ccccc1 (relative stereo) [cis-9]
selectivity for the D4 receptor (D4 (rat) receptor): highly selective for the D4 receptor over the D2 or D3 receptors
deaths ([1]; IP, 10 mg/kg): Two of eight mice died
decrease in locomotor activity, overall assessment ([1]; IP, in words): much weaker than expected when compared to its dopamine D2 receptor affinity
suppression of locomotor activity ([1]; IP, in words): dose-related suppression of locomotor activity of 10 mg/kg
ED50 ([1]; Mus musculus, read-out: ED50 (dose which produced 50% maximal depressant activity), IP, horizontal locomotor activity): 2.1 mg/kg
stereotypy score ([2]; 0.0001 mg/kg): 1.0 ± 0.4
stereotypy score ([2]; 0.001 mg/kg): 0.7 ± 0.3
stereotypy score ([2]; 0.003 mg/kg): 0.5 ± 0.2
stereotypy score ([2]; 0.01 mg/kg): 0.0
stereotypy score ([2]; 0.03 mg/kg): 0.0
stereotypy score ([2]; 0.1 mg/kg): 0.0
stereotypy score ([2]; 0.3 mg/kg): 0.0
stereotypy score ([2]; 1.0 mg/kg): 0.0
stereotypy score ([2]; 3.0 mg/kg): 0.0
stereotypy score ([2]; 10.0 mg/kg): 0.0
induction of stereotypy, dopamine agonism ([2]; in words): did not induce stereotypy and therefore is not a dopamine agonist
Ki (D4 receptor): 8.9 nM
selectivity for the D4 receptor (D4 receptor; in words, Example 27): selective for the D4 receptor over the D2 or D3 receptors
Ki [3]: 27 nM
α2 receptor binding affinity [3]: high binding affinities for the α2 receptor
Ki (D2 dopamine receptor): 22 nM
dopamine receptor binding affinity (D2 dopamine receptor): good dopamine receptor binding affinities
selectivity for the D2 over the D1 dopamine receptor (D2 dopamine receptor): highly selective for the D2 dopamine receptor over the D1 dopamine receptor
Ratio of +:- Gpp(NH)p (D2 receptor [4]; Table XV): 1.84
Ki (D2 receptor [4]; Table XV, with Gpp(NH)p, read-out: D2 receptor binding Ki with Gpp(NH)p): 872 ± 610 nM
Ki (D2 receptor [4]; Table XV, without Gpp(NH)p, read-out: D2 receptor binding Ki without Gpp(NH)p): 473 ± 313 nM
D2 agonist/antagonist assessment (D2 receptor [4]; in words): appear to be an antagonist
effect of GTP on D2 receptor binding (D2 receptor [4]; in words): the addition of GTP did not significantly affect receptor binding affinity
Ki (D2 receptor [5]): 122 nM
Ki [6]: 190 nM

Oc1cccc2c1CC[C@@H]1[C@@H]2CCCN1CCc1ccccc1 (single isomer, unassigned) [trans-(-)-25, trans-(-)-7-hydroxy-4-phenethyl-1,2,3,4a,5,6,10b-octahydrobenzo[f]quinoline]
5HT1 serotonin receptor binding affinity (5HT1 serotonin receptor; in words): high binding affinity for the 5HT1 serotonin receptor
Ki (5HT1 serotonin receptor; read-out: 5-HT1 receptor binding affinity Ki, Table III, rat cortical membranes): 240 nM
Ki (5HT1A serotonin receptor; 5-HT1A receptor binding affinity Ki, Table III, bovine hippocampus): 11 nM
5HT1A serotonin receptor binding affinity (5HT1A serotonin receptor; in words): high binding affinities for the 5HT1A serotonin receptor
Ki [3]: 2.1 nM
α2 receptor binding affinity [3]: high binding affinities for the α2 receptor
Ki (D1 dopamine receptor): 3600 nM
Ki (5HT2 serotonin receptor): 410 nM
Ki (D2 dopamine receptor): 0.9 nM
dopamine receptor binding affinity (D2 dopamine receptor): good dopamine receptor binding affinities
selectivity for the D2 over the D1 dopamine receptor (D2 dopamine receptor): highly selective for the D2 dopamine receptor over the D1 dopamine receptor
α1 receptor binding affinity ([6]; in words): high binding affinities for the α1 receptor
Ki [6]: 4.8 nM
